Measurements published in article PMC8800111 (The Journal of Biological Chemistry, 2021).

Assays:
Format in all cases: cell-based
[1] = target: proteins of U3A human fibrosarcoma cells (4462 proteins detected) (Homo sapiens, UniProt Q04721); details: protein NOTCH2, U3A cells
[2] = target: proteins of U3A human fibrosarcoma cells (4462 proteins detected) (Homo sapiens, UniProt Q8NDC0); details: protein MAPK1IP1L; U3A cells
[3] = target: proteins of U3A human fibrosarcoma cells (4462 proteins detected) (Homo sapiens, UniProt O60684); details: protein KPNA6; U3A cells
[4] = target: proteins of U3A human fibrosarcoma cells (4462 proteins detected) (Homo sapiens, UniProt Q9BY89); details: protein KIAA1671, U3A cells
[5] = target: proteins of U3A human fibrosarcoma cells (4462 proteins detected) (Homo sapiens, UniProt Q96DH6); details: protein MSI2; U3A, 10 μM, 2 h
[6] = target: proteins of U3A human fibrosarcoma cells (4462 proteins detected) (Homo sapiens, UniProt Q9NR28); details: protein DIABLO; U3A cells
[7] = target: proteins of U3A human fibrosarcoma cells (4462 proteins detected) (Homo sapiens, UniProt Q8IUD2); details: protein ERC1, U3A cells
[8] = target: proteins of U3A human fibrosarcoma cells (4462 proteins detected) (Homo sapiens, UniProt Q8IWW6); details: protein ARHGAP12; soluble abundance after heat, U3A cells
[9] = target: proteins of U3A human fibrosarcoma cells (4462 proteins detected) (Homo sapiens, UniProt Q9UHL4); details: protein DPP7; U3A cells
[10] = target: proteins of U3A human fibrosarcoma cells (4462 proteins detected) (Homo sapiens, UniProt Q9Y5J1); details: protein UTP18; U3A cells
[11] = target: proteins of U3A human fibrosarcoma cells (4462 proteins detected) (Homo sapiens, UniProt Q9BX40); details: protein LSM14B; U3A, 10 μM, 2 h
[12] = target: proteins of U3A human fibrosarcoma cells (4462 proteins detected) (Homo sapiens, UniProt Q9Y316); details: protein MEMO1, U3A cells
[13] = target: proteins of U3A human fibrosarcoma cells (4462 proteins detected) (Homo sapiens, UniProt Q9UIG0); details: protein BAZ1B; U3A cells
proteins of U3A human fibrosarcoma cells (4462 proteins detected) (Homo sapiens, UniProt Q9UIG0), sequence (Q9UIG0 whole entry): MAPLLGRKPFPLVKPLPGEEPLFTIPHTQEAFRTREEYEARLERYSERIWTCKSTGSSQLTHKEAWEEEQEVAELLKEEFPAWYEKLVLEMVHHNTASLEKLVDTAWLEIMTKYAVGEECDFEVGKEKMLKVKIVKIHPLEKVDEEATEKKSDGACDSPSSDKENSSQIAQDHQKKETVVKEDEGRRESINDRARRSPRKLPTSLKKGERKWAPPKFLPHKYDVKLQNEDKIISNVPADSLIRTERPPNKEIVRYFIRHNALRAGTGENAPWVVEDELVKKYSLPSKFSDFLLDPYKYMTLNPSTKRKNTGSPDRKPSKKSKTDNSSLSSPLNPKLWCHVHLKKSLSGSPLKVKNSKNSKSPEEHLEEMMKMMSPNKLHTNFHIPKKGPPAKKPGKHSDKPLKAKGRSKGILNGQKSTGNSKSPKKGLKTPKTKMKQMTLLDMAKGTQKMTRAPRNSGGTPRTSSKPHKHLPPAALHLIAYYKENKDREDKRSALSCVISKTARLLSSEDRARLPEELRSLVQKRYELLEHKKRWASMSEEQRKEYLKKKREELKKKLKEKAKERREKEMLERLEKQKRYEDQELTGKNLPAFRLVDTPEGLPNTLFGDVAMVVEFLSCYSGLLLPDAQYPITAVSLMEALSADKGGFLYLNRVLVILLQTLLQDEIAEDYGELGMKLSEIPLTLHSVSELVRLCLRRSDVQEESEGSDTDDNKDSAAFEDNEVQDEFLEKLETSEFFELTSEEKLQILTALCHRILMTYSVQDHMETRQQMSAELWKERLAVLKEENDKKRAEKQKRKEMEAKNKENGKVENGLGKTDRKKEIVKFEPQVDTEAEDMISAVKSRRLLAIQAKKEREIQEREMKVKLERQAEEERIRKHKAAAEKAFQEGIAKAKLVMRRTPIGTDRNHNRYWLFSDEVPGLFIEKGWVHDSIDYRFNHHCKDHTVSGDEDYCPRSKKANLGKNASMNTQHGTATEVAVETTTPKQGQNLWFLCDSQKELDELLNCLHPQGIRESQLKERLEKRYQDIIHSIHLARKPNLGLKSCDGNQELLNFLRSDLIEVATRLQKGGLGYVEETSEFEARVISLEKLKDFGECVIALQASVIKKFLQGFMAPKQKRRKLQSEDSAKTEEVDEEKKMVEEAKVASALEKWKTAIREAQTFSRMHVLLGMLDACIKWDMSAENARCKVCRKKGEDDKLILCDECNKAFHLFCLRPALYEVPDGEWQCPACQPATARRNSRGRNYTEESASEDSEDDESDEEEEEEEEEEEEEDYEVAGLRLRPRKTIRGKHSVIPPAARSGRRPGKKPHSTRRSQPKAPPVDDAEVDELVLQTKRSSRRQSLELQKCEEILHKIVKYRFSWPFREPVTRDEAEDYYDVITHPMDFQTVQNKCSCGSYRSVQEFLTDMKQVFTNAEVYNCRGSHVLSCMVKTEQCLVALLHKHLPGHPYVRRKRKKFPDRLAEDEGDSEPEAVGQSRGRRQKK

[14] = target: proteins of U3A human fibrosarcoma cells (4462 proteins detected) (Homo sapiens, UniProt Q00765); details: protein REEP5; U3A cells
proteins of U3A human fibrosarcoma cells (4462 proteins detected) (Homo sapiens, UniProt Q00765), sequence (Q00765 whole entry): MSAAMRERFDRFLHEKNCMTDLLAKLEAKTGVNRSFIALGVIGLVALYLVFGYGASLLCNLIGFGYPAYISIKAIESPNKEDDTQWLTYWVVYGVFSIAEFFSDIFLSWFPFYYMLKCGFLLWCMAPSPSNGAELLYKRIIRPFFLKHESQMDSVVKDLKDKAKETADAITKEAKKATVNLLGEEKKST

[15] = target: proteins of U3A human fibrosarcoma cells (4462 proteins detected) (Homo sapiens, UniProt P17813); details: protein ENG; U3A cells
proteins of U3A human fibrosarcoma cells (4462 proteins detected) (Homo sapiens, UniProt P17813), sequence (P17813 26-658): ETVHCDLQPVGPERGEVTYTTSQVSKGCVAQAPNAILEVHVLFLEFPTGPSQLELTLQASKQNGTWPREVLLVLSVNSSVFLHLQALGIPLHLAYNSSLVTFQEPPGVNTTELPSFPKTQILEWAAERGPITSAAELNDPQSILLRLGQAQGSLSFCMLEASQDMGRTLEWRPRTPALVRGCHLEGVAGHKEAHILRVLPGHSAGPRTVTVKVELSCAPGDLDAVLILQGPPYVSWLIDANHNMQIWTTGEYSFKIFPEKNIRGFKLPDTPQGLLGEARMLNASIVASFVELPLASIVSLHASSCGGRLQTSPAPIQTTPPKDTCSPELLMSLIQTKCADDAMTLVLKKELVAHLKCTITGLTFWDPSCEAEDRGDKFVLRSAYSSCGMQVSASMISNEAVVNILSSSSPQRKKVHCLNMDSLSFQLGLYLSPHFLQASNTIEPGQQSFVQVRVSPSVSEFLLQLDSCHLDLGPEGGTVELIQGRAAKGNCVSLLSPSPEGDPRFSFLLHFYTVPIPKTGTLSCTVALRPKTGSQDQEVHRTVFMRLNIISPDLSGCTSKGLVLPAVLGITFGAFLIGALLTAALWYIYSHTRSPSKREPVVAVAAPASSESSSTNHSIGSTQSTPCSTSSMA

[16] = target: proteins of U3A human fibrosarcoma cells (4462 proteins detected) (Homo sapiens, UniProt Q96P48); details: protein ARAP1; soluble abundance after heat, U3A cells
[17] = target: proteins of U3A human fibrosarcoma cells (4462 proteins detected) (Homo sapiens, UniProt O14737); details: protein PDCD5, U3A cells
proteins of U3A human fibrosarcoma cells (4462 proteins detected) (Homo sapiens, UniProt O14737), sequence (O14737 whole entry): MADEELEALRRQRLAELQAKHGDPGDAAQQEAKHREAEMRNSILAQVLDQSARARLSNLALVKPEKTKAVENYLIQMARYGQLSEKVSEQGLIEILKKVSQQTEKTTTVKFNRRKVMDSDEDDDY

[18] = target: proteins of U3A human fibrosarcoma cells (4462 proteins detected) (Homo sapiens, UniProt O95453); details: protein PARN; U3A cells
[19] = target: proteins of U3A human fibrosarcoma cells (4462 proteins detected) (Homo sapiens, UniProt Q9NVU7); details: protein SDAD1; soluble abundance after heat, U3A cells
[20] = target: proteins of U3A human fibrosarcoma cells (4462 proteins detected) (Homo sapiens, UniProt Q9BXS5); details: protein AP1M1; U3A cells
[21] = target: proteins of U3A human fibrosarcoma cells (4462 proteins detected) (Homo sapiens, UniProt P27694); details: protein RPA1; U3A cells
[22] = target: proteins of U3A human fibrosarcoma cells (4462 proteins detected) (Homo sapiens, UniProt Q6UWP8); details: protein SBSN, U3A cells
proteins of U3A human fibrosarcoma cells (4462 proteins detected) (Homo sapiens, UniProt Q6UWP8), sequence (Q6UWP8 26-590): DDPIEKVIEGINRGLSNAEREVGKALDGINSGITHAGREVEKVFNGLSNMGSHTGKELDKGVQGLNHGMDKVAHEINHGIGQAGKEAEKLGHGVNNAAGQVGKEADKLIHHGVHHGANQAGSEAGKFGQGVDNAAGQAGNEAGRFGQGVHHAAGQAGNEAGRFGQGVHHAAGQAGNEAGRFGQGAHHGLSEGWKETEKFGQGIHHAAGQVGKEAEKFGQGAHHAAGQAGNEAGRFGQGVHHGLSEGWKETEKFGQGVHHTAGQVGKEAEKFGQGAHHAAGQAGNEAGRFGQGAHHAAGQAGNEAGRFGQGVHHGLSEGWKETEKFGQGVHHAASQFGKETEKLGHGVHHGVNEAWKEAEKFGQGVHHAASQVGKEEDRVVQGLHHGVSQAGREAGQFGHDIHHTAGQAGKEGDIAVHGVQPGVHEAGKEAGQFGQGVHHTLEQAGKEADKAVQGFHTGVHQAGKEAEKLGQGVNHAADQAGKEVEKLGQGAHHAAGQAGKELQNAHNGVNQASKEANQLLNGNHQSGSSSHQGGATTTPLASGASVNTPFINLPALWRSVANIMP

[23] = target: proteins of U3A human fibrosarcoma cells (4462 proteins detected) (Homo sapiens, UniProt O60885); details: protein BRD4; soluble abundance after heat, U3A cells
[24] = target: proteins of U3A human fibrosarcoma cells (4462 proteins detected) (Homo sapiens, UniProt Q14790); details: protein CASP8; U3A, 10 μM, 2 h
[25] = target: proteins of U3A human fibrosarcoma cells (4462 proteins detected) (Homo sapiens, UniProt Q9HAU0); details: protein PLEKHA5, U3A cells
[26] = target: proteins of U3A human fibrosarcoma cells (4462 proteins detected) (Homo sapiens, UniProt O43402); details: protein EMC8; soluble abundance after heat, U3A cells
proteins of U3A human fibrosarcoma cells (4462 proteins detected) (Homo sapiens, UniProt O43402), sequence (O43402 whole entry): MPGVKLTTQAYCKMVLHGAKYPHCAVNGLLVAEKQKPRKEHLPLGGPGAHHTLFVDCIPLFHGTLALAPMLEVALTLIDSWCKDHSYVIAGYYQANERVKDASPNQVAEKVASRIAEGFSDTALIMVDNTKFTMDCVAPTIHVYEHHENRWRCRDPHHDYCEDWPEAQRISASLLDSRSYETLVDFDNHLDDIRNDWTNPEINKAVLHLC

[27] = target: proteins of U3A human fibrosarcoma cells (4462 proteins detected) (Homo sapiens, UniProt Q9UL16); details: protein CFAP45, U3A cells
proteins of U3A human fibrosarcoma cells (4462 proteins detected) (Homo sapiens, UniProt Q9UL16), sequence (Q9UL16 whole entry): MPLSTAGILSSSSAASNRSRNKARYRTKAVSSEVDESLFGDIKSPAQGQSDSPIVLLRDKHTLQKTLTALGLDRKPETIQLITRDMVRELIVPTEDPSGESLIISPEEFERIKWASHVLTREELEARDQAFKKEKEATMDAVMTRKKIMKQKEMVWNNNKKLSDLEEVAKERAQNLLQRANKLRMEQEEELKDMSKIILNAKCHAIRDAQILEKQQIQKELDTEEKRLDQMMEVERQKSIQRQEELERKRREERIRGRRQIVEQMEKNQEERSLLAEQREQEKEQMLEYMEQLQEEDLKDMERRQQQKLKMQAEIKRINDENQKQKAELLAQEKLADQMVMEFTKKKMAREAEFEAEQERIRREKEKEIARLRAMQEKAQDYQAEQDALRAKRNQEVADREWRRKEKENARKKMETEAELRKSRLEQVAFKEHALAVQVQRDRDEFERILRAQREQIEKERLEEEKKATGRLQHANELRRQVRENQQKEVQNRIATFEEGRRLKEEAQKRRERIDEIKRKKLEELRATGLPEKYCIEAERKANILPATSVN

[28] = target: proteins of U3A human fibrosarcoma cells (4462 proteins detected) (Homo sapiens, UniProt P48637); details: protein GSS; soluble abundance after heat, U3A cells
proteins of U3A human fibrosarcoma cells (4462 proteins detected) (Homo sapiens, UniProt P48637), sequence (P48637 whole entry): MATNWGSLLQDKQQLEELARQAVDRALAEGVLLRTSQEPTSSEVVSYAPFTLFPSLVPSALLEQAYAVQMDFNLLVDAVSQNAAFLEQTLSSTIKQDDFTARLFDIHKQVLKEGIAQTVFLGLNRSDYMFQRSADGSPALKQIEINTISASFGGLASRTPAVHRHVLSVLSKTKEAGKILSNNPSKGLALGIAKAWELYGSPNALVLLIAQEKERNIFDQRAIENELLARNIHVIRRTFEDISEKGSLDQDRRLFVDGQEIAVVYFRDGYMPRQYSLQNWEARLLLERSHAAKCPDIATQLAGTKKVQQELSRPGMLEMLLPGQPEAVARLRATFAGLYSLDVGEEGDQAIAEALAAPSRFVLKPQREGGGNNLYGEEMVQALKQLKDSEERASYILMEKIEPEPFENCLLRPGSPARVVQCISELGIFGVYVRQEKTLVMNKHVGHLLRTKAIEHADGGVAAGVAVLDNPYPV

[29] = target: proteins of U3A human fibrosarcoma cells (4462 proteins detected) (Homo sapiens, UniProt Q15084); details: protein PDIA6; U3A cells
[30] = target: proteins of U3A human fibrosarcoma cells (4462 proteins detected) (Homo sapiens, UniProt P29992); details: protein GNA11; U3A cells
proteins of U3A human fibrosarcoma cells (4462 proteins detected) (Homo sapiens, UniProt P29992), sequence (P29992 whole entry): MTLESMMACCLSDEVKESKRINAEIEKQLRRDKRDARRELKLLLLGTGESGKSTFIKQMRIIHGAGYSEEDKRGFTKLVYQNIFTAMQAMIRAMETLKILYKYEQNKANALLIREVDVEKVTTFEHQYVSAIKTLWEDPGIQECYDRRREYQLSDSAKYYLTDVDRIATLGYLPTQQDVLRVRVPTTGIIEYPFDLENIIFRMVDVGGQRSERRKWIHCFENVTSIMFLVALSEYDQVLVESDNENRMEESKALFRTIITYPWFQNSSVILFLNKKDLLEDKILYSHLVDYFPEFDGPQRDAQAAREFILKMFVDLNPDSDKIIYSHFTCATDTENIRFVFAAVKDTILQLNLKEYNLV

proteins of U3A human fibrosarcoma cells (4462 proteins detected) (Homo sapiens, UniProt Q8NDC0), sequence (Q8NDC0 whole entry): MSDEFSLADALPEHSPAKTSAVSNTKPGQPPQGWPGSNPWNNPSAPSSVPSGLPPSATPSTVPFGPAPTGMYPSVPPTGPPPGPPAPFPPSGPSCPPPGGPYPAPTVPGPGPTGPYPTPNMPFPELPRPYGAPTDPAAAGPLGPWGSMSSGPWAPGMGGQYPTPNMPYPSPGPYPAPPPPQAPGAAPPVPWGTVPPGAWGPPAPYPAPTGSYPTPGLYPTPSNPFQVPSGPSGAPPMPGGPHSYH

CCc1nc(N)nc(N)c1-c1ccc(Cl)cc1 [pyrimethamine]
Log2 (PYR/DMSO) [1]: -0.04
Log2 (PYR/DMSO) [2]: 0.22
Log2 (PYR/DMSO) [3]: 0.24
Log2 (PYR/DMSO) [4]: -0.03
Log2 (PYR/DMSO), MSI2 [5]: -0.17
Log2 (PYR/DMSO) [6]: 0.16
Log2 (PYR/DMSO) [7]: -0.04
Log2 (PYR/DMSO) [8]: 0.13
Log2 (PYR/DMSO) [9]: 0.22
Log2 (PYR/DMSO) [10]: 0.21
Log2 (PYR/DMSO), LSM14B [11]: -0.17
Log2 (PYR/DMSO) [12]: -0.03
Log2 (PYR/DMSO) [13]: 0.21
Log2 (PYR/DMSO) [14]: 0.19
Log2 (PYR/DMSO) [15]: 0.15
Log2 (PYR/DMSO) [16]: 0.14
Log2 (PYR/DMSO) [17]: -0.04
Log2 (PYR/DMSO) [18]: 0.21
Log2 (PYR/DMSO) [19]: 0.15
Log2 (PYR/DMSO) [20]: 0.17
Log2 (PYR/DMSO) [21]: 0.16
Log2 (PYR/DMSO) [22]: -0.05
Log2 (PYR/DMSO) [23]: 0.14
Log2 (PYR/DMSO), CASP8 [24]: 0.34
Log2 (PYR/DMSO) [25]: -0.05
Log2 (PYR/DMSO) [26]: 0.15
Log2 (PYR/DMSO) [27]: -0.04
Log2 (PYR/DMSO) [28]: 0.14
Log2 (PYR/DMSO) [29]: 0.16
Log2 (PYR/DMSO) [30]: 0.16
